Legend:
[1] = in animals; no reference given; cited from earlier work
[2] = design: method as in earlier work; details: rats 50, 250, 500 mg/kg i.p. daily; dogs 50 mg/kg i.v.; ref 6 of peer review file; cited from earlier work
[3] = PBS pH 7.4, after 2 hr; no reference given; cited from earlier work
[4] = Water solubility (saturation, HPLC); type: physicochemical; details: 24 h
[5] = Octanol-to-water partitioning; details: for partitioning behavior in octanol-water two-phase system: 1-octanol / citric acid buffer pH 5 (Fig. 2f), in words; for Log P (partition coefficient): 24 h, pH 5
Method: Samples from the supernatant were analyzed by HPLC to determine water solubility. The partitioning of compounds between octanol and water was determined by adding 2.5 nmol of each substance to an equal volume (200 µL) mixture of octanol and 0.25 M citric acid, pH 5 and shaking for 24 h to permit equilibration between the two phases. The tubes were then centrifuged at 20,000 × g for 30 min at 20 °C and 20 μL samples from each phase were analyzed by HPLC. The partition coefficient is defined by the following equation, where “C” is the concentration of compound in each phase. A partition coefficient equal to 0 means that the compound equally distributes between each phase.

[6] = tested on: MDA-MB-468 human breast tumors; assay: In vivo anticancer activity, subcutaneous human breast cancer xenograft; design: species or system NOD/SCID mice; details: four weekly injections
Method: MDA-MB468 human breast cancer cells (10^7 cells in 100 µL PBS) were injected subcutaneously in twelve to sixteen-week old female NOD/SCID immunodeficient mice. When tumors reached sizes ranging from 75 to 100 mm^3, groups of seven mice were treated at weekly intervals for four times with intravenous injections of 9AC at 5.5 µmol kg^−1 (2 mg kg^−1), 9AC-G^W at 14.5 µmol kg^−1 (10 mg kg^−1), liposomal 9AC-G^W at 14.5 µmol kg^−1 (10 mg kg^−1), or doxorubicin liposomes (Doxisome, 1.8 µmol kg^−1 equivalent to 1 mg kg^−1 and 5.5 µmol kg^−1 equivalent to 3 mg kg^−1). Tumor volumes, body weights, and survival were monitored for more than 2 months after treatments started. […] The tumor volume was calculated according to the following formula:2 TumorVolume=Length×Depth×Height/2

[7] = Regeneration of parental drug 9AC within tumors (tumor vs blood); type: in vivo, NOD/SCID mice; details: female, NOD/SCID, mouse, intravenous, printed in picture of Fig. 9b, read-out: 9AC per gram of tissue, Tumor vs Blood
Method: Twelve to 16 week old female NOD/SCID immunodeficient mice were inoculated with 10^7 MDA-MB468 human breast cancer cells. When tumors reached ~100 mm^3, the mice were intravenously injected with 14.5 µmol kg^−1 (10 mg kg^−1) of liposomal 9AC-G^W (based on the drug concentration). Blood was collected in Na-heparinized hematocrit tubes from the tail vein and mice were then killed to harvest the tumor tissue. Blood samples (100 µL) were centrifuged at 2500 × g for 3 min and the plasma was collected for analysis. Tumor tissue was homogenized in 3 mL RIPA buffer (25 mM Tris-HCl pH 7.5, 150 mM NaCl, 0.1% SDS, 0.5% Na-deoxycholate, 1% Triton X-100) on a IKA Ultra-Turrax® TP 18/10 homogenizer. The amount of 9AC was determined in blood and tumor samples by HPLC and normalized to amounts per gram of tissue, according to the relationship 1 mL of whole blood = 1.06 g of weight.

[8] = parental hydrophobic drugs; cited from earlier work
[9] = Pharmacokinetics in plasma after i.v. injection; design: species or system NOD/SCID female mice; details: female, NOD/SCID, mouse, in vivo, iv, 35 umol/kg
Method: 9AC-G^W was dissolved at 10.9 µmol mL^−1 (7.5 mg mL^−1) in 25 mM phosphate buffer pH 6.5 just before use. 9AC-G^W liposomes were concentrated by successive centrifugations at 5000, 10,000, and 20,000 × g for 30 min at 4 °C. After each centrifugation, the pellet was collected and resuspended in a smaller volume of buffer. The concentration of liposomal 9AC-G^W achieved through this method before injection was 5.1 µmol mL^−1 (3.5 mg mL^−1) based on 9AC-G^W. Each preparation (free 9AC-G^W and liposomal 9AC-G^W) was injected intravenously in the tail vein of 12–16 week old NOD/SCID female mice at 35 µmol kg^−1 (25 mg kg^−1) using three mice per group. Blood samples were collected at 5 min, 30 min, 60 min, 2 h, and 3 h for free 9AC-G^W, in addition to 6, 12, 26, 48, 148 h for 9AC-G^W liposomes with Na-heparinized hematocrit tubes from the tail vein. The plasma was separated from the red blood cells by centrifugation at 2500 × g for 3 min. […] The final results are expressed as 9AC-G^W plasma concentration in µmol L^−1 (µM). Biological half-lives were determined by an exponential two phase decay curve fit on GraphPad prism (GraphPad software, Inc.).

[10] = Stability and conversion of the lipid-soluble switch in liposomal external and internal buffers; type: physicochemical; details: 75 °C
Method: Error bars, SD, n = 3. c Kinetics of the conversion of 9AC-G^W to lipid-soluble 9AC-G^L, d BQC-G^W to BQC-G^L and e 4MU-G^W to 4MU-G^L in acidic methanol at 62 °C. The HPLC chromatograms show samples at 0, 15, 30, and 60 min. RFU relative fluorescent units. f Partition coefficients (Log scale) between 50 mM citric acid buffer pH 5 and 1-octanol of the parental compounds compared to their respective -G^W and -G^L forms. Error bars: SD, n = 5. g Stability of 9AC-G^L in liposomal external buffer (50 mM citric acid, 250 mM sodium sulfate, pH 5) at 75 °C. Error bars: SD, n = 3. h Conversion of 9AC-G^L to 9AC-G^W in liposomal internal buffer (50 mM HEPES, 250 mM calcium acetate, pH 8.5) at 75 °C. Error bars: SD, n = 3.
Water-soluble 9AC-G^W was obtained by incubating 50 µg 9AC-G^L in 500 µL of liposomal internal buffer at pH 8.5. After 1 h at 65 °C the reaction was analyzed by HPLC to assess the reformation of 9AC-G^W. A 20 µL sample of 9AC-G^W was then transferred to 1 mL of reaction buffer (100 mM sodium acetate, 100 ng mL^−1 bovine serum albumin, pH 4.5) containing 1 µg of purified recombinant human beta-glucuronidase[56] for 1 h at 37 °C to cleave the cue-responsive trigger and generate 9AC. Drug regeneration was also examined in a biological system where 10^5 cells (MDA-MB468, HCC36, and HCC36 anti-PEG) were seeded per well in a 96 well-plate in triplicate and incubated overnight. […]

For OCc1ccccc1 [Benzyl alcohol, benzyl alcohol], the LD50 dose [1] is listed as “greater than 1 g per kg”.

For O=C[C@H](O)[C@@H](O)[C@H](O)[C@H](O)C(=O)O [D-glucuronic acid], the “functional or morphological changes after one-month treatment” value [2] is listed as “induced neither f unctional nor”.

In the case of CC[C@@]1(O)C(=O)OCc2c1cc1n(c2=O)Cc2cc3ccccc3nc2-1 [CPT], the activity remaining [3] is listed as 10%.

In the case of CCC1(O)C(=O)OCc2c1cc1n(c2=O)Cc2c-1nc1ccc(OCc3ccc(OC4OC(C(=O)O)C(O)C(O)C4O)c([N+](=O)[O-])c3)c3c1c2CCC3 [BQC-G^W, 5,6-dihydro-4H-benzo[de]quinoline-camptothecin-β-D-glucuronide], the “water solubility, fold greater than the parental hydrophobic drug” value [4] is reported as 3700 fold, the “partitioning behavior in octanol-water two-phase system” value (from here on “partitioning behavior”) [5] is reported as “partitioned in the aqueous phase” and the “partitioning behavior” value ([5]; listed as BQC-G^L) is reported as “slightly lipophilic behavior”. The “Log P (partition coefficient)” value [5] was ~ 1.3.

In the case of CCC1(O)C(=O)OCc2c1cc1n(c2=O)Cc2c-1nc1ccc(O)c3c1c2CCC3 (centres unmarked) [BQC, 5,6-dihydro-4H-benzo[de]quinoline-camptothecin, reference compound], the “Water solubility, fold difference between Parental and -G^W Switch” value [4] is reported as greater than 3700 ×.

With Cc1cc(=O)oc2cc(O[C@@H]3O[C@H](C(=O)O)[C@@H](O)[C@H](O)[C@H]3O)ccc12 [4MU-G^W, 4-methylumbelliferyl-β-D-glucuronide, reference compound] the “partitioning behavior” value [5] was “partitioned in the aqueous phase” and the “partitioning behavior” value ([5]; listed as 4MU-G^L) was “slightly lipophilic behavior”.

In the case of CC[C@@]1(O)C(=O)OCc2c1cc1n(c2=O)Cc2cc3c(N)cccc3nc2-1 [9AC, 9-aminocamptothecin], the “effect on tumor growth compared with TBS” value ([6]; 5.5 µmol kg^−1 i.v.) is reported as “minimal effect on tumor growth”, the Kp at 24 h ([7]; 24 h post-injection) is reported as greater than 30 and the Kp at 72 h ([7]; 72 h post-injection) is reported as greater than 12. The water solubility [8] was less than 50 µg/mL.

In the case of CCC1(O)C(=O)OCc2c1cc1n(c2=O)Cc2cc3c(NC(=O)OCc4ccc(OC5OC(C(=O)O)C(O)C(O)C5O)cc4)cccc3nc2-1 [9AC-G^W, 9-aminocamptothecin-β-D-glucuronide], the “effect on tumor growth compared with TBS” value ([6]; 14.5 µmol kg^−1 i.v.) is reported as “minimal effect on tumor growth”, the “water solubility, fold greater than the parental hydrophobic drug” value [4] is reported as 680 fold and the “partitioning behavior” value [5] is reported as “partitioned in the aqueous phase”. For the same compound, the “partitioning behavior” value ([5]; listed as 9AC-G^L) was “slightly lipophilic behavior”, the “Log P (partition coefficient)” value [5] was ~ 1.1 and the half-life ([9]; initial half-life) was 9.3 min. For the same compound, the half-life ([9]; terminal half-life) was 38.6 min, the “stability in liposomal external buffer” value ([10]; pH 5 (50 mM citric acid, 250 mM sodium sulfate)) was “stable” and the “conversion in liposomal internal buffer” value ([10]; pH 8.5 (50 mM HEPES, 250 mM calcium acetate)) was “rapidly converted to the highly water-soluble 9AC-G^W”.

Reference: PMC5945669, “Reversible glycosidic switch for secure delivery of molecular nanocargos” (Nature Communications, 2018)
